The subject of one data set is PC3M cells. Kind of data set: PNC disassembly by biotin-metarrestin in cultured cells. It counts as cell-based, human. The following applies: 1 μM, 24 hours (FIG. 60). As for the experimental part: FIG. 60 is a set of panels showing the effectiveness of biotin-metarrestin in disassembling PNCs. The effects of metarrestin and biotin-metarrestin were compared in PC3M cells treated at 1 μM or untreated for 24 hours. Arrows indicate PNCs. Scale bar=5 μm.

Data set [1] is described as follows: Anchorage-independent growth, soft agar assay of screening hits. It is filed as cell-based. The settings on record: screening hit. The source says:
(§1) A metastatic prostate cancer cell line, PC3M, was developed in order to screen small molecules that effectively disassemble PNCs (see Pettaway, et al., “Selection of highly metastatic variants of different human prostatic carcinomas using orthotopic implantation in nude mice,” Clin. Cancer Res., (2): 1627-36 (1996), incorporated herein in its entirety). PC3M has a […] stably express GFP-PTB (polypyrimidine track binding protein) (FIG. 1, top panels), an essential component of PNCs (see Huang, et al., “The perinucleolar compartment and transcription,” Journal of Cell Biology, (143): 35-47 (1998), incorporated herein in its entirety). Compounds able to reduce PNC prevalence by 50% were filtered in secondary assays to eliminate those that induced apoptosis, DNA damage, generic cytotoxicity, or cell-cycle blockage (see Norton, et al., “Automated high-content screening for compounds that disassemble the perinucleolar compartment,” J Biomol Screen, (14): 1045-53 (2009) and Frankowski, et al., “Discovery and Development of Small Molecules That Reduce PNC Prevalence, in Probe Reports from the NIH Molecular Libraries Program, Bethesda (Md.).(2010), incorporated herein in their entirety). The remaining hits were evaluated for invasion inhibition through MATRIGEL gelatinous protein mixture and anchorage-independent growth inhibition using soft agar assays.

A short description of data set [2]: Invasion through MATRIGEL, screening hits. It counts as cell-based. The following applies: screening hit.
From the text: as §1

Data set [3] is described as follows: Cytotoxicity secondary assay of screening hits. The following applies: screening hit. It counts as cell-based.
From the text: as §1

The next data set concerns PC3M-GFP-PTB cells. Kind of data set: PNC prevalence / PNC disassembly in PC3M-GFP-PTB cells. It counts as cell-based, human. The following applies: screening hit.
From the text: FIG. 1 is a graph showing the concentration-response curve against PNC prevalence in PC3M (a metastatic prostate cancer cell line)-GFP (green fluorescent protein)-PTB (polypyrimidine tract-binding protein) cells (squares, PC3M, has a PNC prevalence of 75-85% in the absence of treatment) and cytotoxicity as measured by cellular ATP (CELLTITER GLO™) (circles). Representative PTB-GFP images for cells at the indicated concentrations (arrowheads indicate PNCs) (scale bar=5 μm) are shown in the three panels above the graph. The relative signal (%) is along the y-axis and Metarrestin [log M] is along the x-axis.
as §1

A further data set relates to Pol II transcription. Kind of data set: Pol II transcription status: CUGBP and SC35 immunolabeling. It counts as cell-based. The source says:
To further determine whether metarrestin interferes with Pol II transcription in general, CUGBP was immunolabeled. The steady state nuclear distribution of CUGBP, a multifunctional hnRNP protein highly enriched in the PNC, is dependent upon Pol II transcription.

Each structure is given as a SMILES string.

`N=c1c2c(-c3ccccc3)c(-c3ccccc3)n(Cc3cccc(C#CCCCCNC(=O)CCCC[C@@H]4SC[C@@H]5NC(=O)N[C@@H]54)c3)c2ncn1[C@H]1CC[C@H](O)CC1` [biotin-conjugated metarrestin, N-(6-(3-((3-(trans-4-hydroxycyclohexyl)-4-imino-5,6-diphenyl-3,4-dihydro-7H-pyrrolo[2,3-d]pyrimidin-7-yl)methyl)phenyl)hex-5-yn-1-yl)-5-((3aS,4S,6aR)-2-oxohexahydro-1H-thieno[3,4-d]imidazol-4-yl)pentanamide]: the “PNC disassembly in cultured cells” value with PC3M cells is “maintains its efficacy for PNC disassembly”.

For `N=c1c2c(-c3ccccc3)c(-c3ccccc3)n(Cc3ccccc3)c2ncn1CCCO` [MLS000556915], the Soft agar growth result in data set [1] is “soft agar growth inhibitor”. The Invasion entry in data set [2] is on record as “ability to block invasion”. In addition, in data set [3], the Cytotoxicity entry is on record as “lack of cytotoxicity”. Also, the PNC inhibition result in the data set on PC3M-GFP-PTB cells is on record as “potency as a PNC inhibitor”.

On to `CC[C@H](C)[C@@H]1NC(=O)CNC(=O)[C@@H]2Cc3c([nH]c4cc(O)ccc34)[S+]([O-])C[C@@H](NC(=O)CNC1=O)C(=O)N[C@@H](CC(N)=O)C(=O)N1C[C@H](O)C[C@H]1C(=O)N[C@@H]([C@@H](C)[C@@H](O)CO)C(=O)N2` (stereo in doubt) [α-amanitin, reference compound], for which, in the data set with Pol II transcription, the “Localization of CUGBP” value is “induces a localization shift to the cytoplasm” and the SC35 distribution pattern entry is listed as “changed to isolated large dots”.

Source of the values: patent publication US20210186972A1, “FORMULATIONS AND METHODS FOR THE PREVENTION AND TREATMENT OF TUMOR METASTASIS AND TUMORIGENESIS” (THE UNITED STATES OF AMERICA, AS REPRESENTED BY THE …, priority 2018, published 2021).
